# Data published in patent US20240390487A1, “TLR AGONISTS FOR REDUCING ACTIVATION-INDUCED PD-1 EXPRESSION ON T CELLS AND METHODS OF USE” (WISCONSIN ALUMNI RESEARCH FOUNDATION, priority 2016, published 2024).
# Tests used:
# OT-1 CD8+ T cells = assay: Adoptive transfer of OT-1 T cells and immunization of C57BL/6 mice, marker expression on splenic OT-1 T cells; type: in vivo
# Description: Vaccine type can affect expression of T-cell checkpoint molecules on activated CD8+ T cells: This Example used an ovalbumin vaccination model. OT-1 cells were adoptively transferred to naïve C57BL/6 mice. The day after transfer, mice were immunized once with (a) DNA encoding ovalbumin, (b) Listeria monocytogenes (Lm) encoding ovalbumin, (c) OVA257-264 peptide (SIINFEKL (SEQ ID NO:1)), (d) SIINFEKL peptide (SEQ ID NO:1) with DNA vector, (e) DNA vector alone, (f) Lm encoding control vector with no antigen, or (g) NS (non-specific) peptide. Splenocytes were collected the day after vaccination for expression of cell surface markers on antigen-specific OT-1 cells. […] LAG-3 expression was not reduced in the presence of Lm co-administered with peptide.
# TLR stimulation at the time of T-cell activation reduced expression of PD-1 in vivo: To determine whether TLR stimulation at the time of T-cell activation with vaccination elicited a similar reduction in PD-1 in vivo, OT-1 cells were adoptively transferred to naïve C57BL/6 mice as above, and immunized once with OVA or FT peptide (or non-specific peptide) one day later in the presence or absence of a TLR 1/2, TLR7, or TLR9 ligand. Splenocytes were collected from groups up to 14 days after immunization and evaluated for expression of 4-1BB, PD-1 and LAG-3.
# Adoptive transfer and immunization of wild type C57BL/6 (B6) mice: OT-1 splenocytes were harvested and CD8+ T cells were isolated as described above. 2×10^6 OT-1 T cells were adoptively transferred into 6- to 10-week old female B6 mice via intraperitoneal injection. The day following transfer, mice were immunized subcutaneously with 100 μg SIINFEKL peptide (SEQ ID NO:1) in PBS without adjuvant, intradermally with 100 μg plasmid encoding full length secreted chicken egg ovalbumin (pCI-neo-sOVA (psOVA), Addgene plasmid #25098, Cambridge, MA), intraperitoneally with 5×10^6 cfu of a Listeria monocytogenes vector encoding ovalbumin (Lm-OVA, gift of JD Sauer), or vehicle or corresponding wild-type Lm or DNA plasmid vector. TLR agonists were co-injected with the vaccine at the following concentrations: 20 μg/mouse Pam3CSK4, 100 μg/mouse Gardiquimod, 50 μg/mouse ODN 1826, or vehicle. Mice were euthanized at the times indicated. Spleens were collected, processed as described above, and T-cell populations analyzed by flow cytometry. Data collected on different days were normalized using rainbow beads (Spherotech, Lake Forest, IL; RFP-30-5A).
# [1] = system: OT-1 transgenic splenocytes; assay: In vitro stimulation of OT-1 splenocytes with peptide antigen in the presence of TLR agonists, surface markers by flow cytometry; type: cell-based, mice; set-up: key to 4-1BB / PD-1 / LAG3 / CD160 / CD244.2 / BTLA / VISTA: “+” means increase; “−” means decrease; “=” means no change; “=/+” or “=/−” means the change is there but not significant; “=/+” or “=/−” means the change is there but not significant; conditions: for 4-1BB / LAG3 / PD-1: OT-1 splenocytes, high affinity antigen plus TLR agonist, versus antigen alone
# Description: T cell activation was measured by the levels of marker 4-1BB (a/k/a CD137, a member of the TNF receptor superfamily). The level of PD-1 expression was also assessed in these cells (FIG. 1B).
# There was no difference in LAG3 expression between the control cells and cells treated with any of the assayed TLR agonists.
# OT-1 transgenic splenocytes were treated with high affinity antigen in combination with Pam3CSK4 (TLR1 and 2 agonist), Gardiquimod (TLR7 agonist) or no TLR agonist and the levels of different checkpoint markers or T cell stimulation (measured by 4-1BB, FIG. 5) were assayed. The checkpoint markers BTLA (FIG. 6), VISTA (FIG. 7), CD160 (FIG. 8) and CD244.2 (FIG. 9) were assayed.
# TLR stimulation at the time of T-cell activation in vitro affects expression of PD-1. Given that CpG-rich DNA is a TLR9 agonist and Lm is a TLR2 agonist, we questioned whether TLR stimulation with different ligands could similarly affect expression of different T-cell checkpoint inhibitors. […] OT-1 splenocytes were stimulated in vitro with peptides of different affinity for MHC class I (high-affinity SIINFEKL peptide (SEQ ID NO:1, OVA), moderate-affinity SIINTEKL peptide (SEQ ID NO:2, FT), or low-affinity SIINFEKP peptide (SEQ ID NO:7, LP)), alone or in the presence of different TLR ligands (TLR 1/2 (Pam3CSK4), TLR 3 (Poly I:C), TLR 4 (MPLAs), TLR 7 (Gardiquimod), TLR 7/8 (R848), or TLR 9 (ODN1826)). […] Similarly, LAG-3 expression increased by day 3, but was not affected by the presence of different TLR ligands. […] This reduction in PD-1 expression was observed most with the high-affinity SIINFEKL (SEQ ID NO:1) epitope, but also observed following activation with lower affinity epitopes. Given these findings, we evaluated expression of multiple other T-cell checkpoint molecules following T-cell activation in the presence of TLR ligands. […] Cytotoxic T-lymphocyte-associated protein 4 (CTLA-4) expression, however, was increased in the presence of TLR1/2 agonist. Similar results were found activating OT-1 cells with the lower affinity FT (SIINTEKL peptide (SEQ ID NO:2)), LP (SIINFEKP peptide (SEQ ID NO:7), or LY (SIINFEKY, SEQ ID NO:8) epitopes (FIG. 19).
# In vitro T-cell stimulation: Spleens were collected from OT-1 mice, processed through a mesh screen, and splenocytes were isolated by centrifugation after red blood cell osmotic lysis with ammonium chloride/[…] lysis buffer (0.15 M NH4Cl, 10 mM KHCO3, 0.1 mM EDTA). Splenocytes were cultured at 2×10^6/mL in RPMI 1640 medium supplemented with L-glutamine, 10% fetal calf serum (FCS), 200 U/mL penicillin/streptomycin, 1% sodium pyruvate, 1% HEPES, 50 μM β-MeOH, and 2 μg/mL of the designated peptide. TLR agonists were all purchased from InvivoGen (San Diego, CA) and added one hour before peptides at the following optimal concentrations based on preliminary studies and previously reported results: 300 ng/ml Pam3CSK4, 10 μg/mL Poly(I:C) HMW, 10 μg/ml MPLAs, 3 μg/ml Gardiquimod, 10 μg/ml R848, 5 μM ODN 1826. At the time points indicated, cells were stained, fixed for 15 min at 4° C. in cytofix (BD Biosciences (BD), San Jose, CA; 554655), and frozen in FCS+10% DMSO. After all time points were collected, cells from all times were thawed, rinsed and resuspended in PBS+3% FCS+1 mM EDTA and analyzed by flow cytometry. Cells were stained for 30 min at 4° C. in a 1:4 dilution of brilliant stain buffer (BD 563794) in PBS+3% FCS+1 mM EDTA. In order to assess co-stimulation, blocking antibodies for CD80 (0.6 μg/mL), CD86 (0.25 μg/mL) or OX40L (0.6 μg/mL) were added 1 hour prior to antigen.
# [2] = system: ovalbumin-expressing E.G7 cells; assay: Ovalbumin tumor treatment study: peptide immunization with or without TLR agonist; type: in vivo, mice; conditions: FT peptide relative to high-affinity OVA peptide
# Description: OT-1 T cells were then adoptively transferred and the following day were immunized with SIINFEKL (SEQ ID NO:1, OVA) or FT peptide (SEQ ID NO:2) alone or with TLR1/2 or TLR7 agonist. Other groups were immunized with 100 μg anti-PD-1 antibody delivered the following day. […] This anti-tumor effect was not observed with TLR agonist treatment alone (FIG. 22). […] This was associated with a reduced PD-1 (but not LAG-3) expression on CD8+ TIL (FIG. 17C).
# Ovalbumin tumor treatment studies: 10^6 ovalbumin-expressing E.G7 PD-L 1^high cells were injected subcutaneously into 6- to 10-week old female B6 mice. Ten to fifteen days post injection, when tumors were palpable and similarly sized (˜0.2 cm^3), 2×10^6 naïve OT-1 CD8+ T cells were adoptively transferred to each mouse as described above. The following day mice were immunized subcutaneously with 100 μg of an individual peptide (SIINFEKL (SEQ ID NO:1) or variant, LifeTein) in PBS, with or without TLR agonists as described above. In the group receiving PD-1 blocking antibody, 100 μg of antibody (clone G4 (52)) was injected intraperitoneally on the day following vaccination. Tumor volume was measured over time using calipers and calculated in cubic centimeters according to the following formula: (π/6)*(long axis)*(short axis)^2. Tumors obtained at necropsy were digested in media containing 1 mg/mL collagenase and 20 μg/mL DNAse I (Sigma, St. Louis, MO) for 1-2 hours at 37° C. and passed through a 100-μm screen to obtain a single-cell suspension. Tumor cells and tumor-infiltrating lymphocytes (TILs) were stained and analyzed by flow cytometry using the following panel: CD3-FITC (BD 555274), CD4-BUV395 (BD 563790), CD8-BUV805 (BD 564920), LAG-3-BV711 (BD 563179), PD1-PECF594 (BD 562523), PDL1-PECy7 (BD 558017), 41BB-PerCPeF710) (eBioscience 46-1371-82), CD45-BV510 (BD 563891) and Live/Dead Ghost dye 780 (Tonbo, San Diego, CA 13-0865-T100) or corresponding fluorescently labeled IgG controls.
molecule,measurement,setting,value
SIINFEKL [SIINFEKL peptide],LAG-3 expression by vaccine type,"OT-1 CD8+ T cells; one immunization, splenocytes after vaccination, Lm co-administered with peptide",significantly increased
same,4-1BB expression by vaccine type,"OT-1 CD8+ T cells; one immunization, splenocytes after vaccination, Lm or DNA co-administered at the site of peptide immunization",strongest activation
same,PD-1 expression by vaccine type,"OT-1 CD8+ T cells; one immunization, splenocytes after vaccination, Lm or DNA co-administered with peptide versus peptide",significantly increased
same,"T-cell activation as measured by 4-1BB expression, by peptide affinity",[1]; OVA versus FT and LP peptides,greatest T-cell activation
SIINTEKL [FT peptide],anti-tumor response of peptide immunization alone,[2],greater anti-tumor response
"CCOCc1nc2c(N)nc3ccccc3c2n1CC(C)(C)O [R848, Resiquimod]",4-1BB,[1],=
same,LAG3,[1],=
same,PD-1,[1],−
ODN1826,PD-1 expression on OT-1 CD8+ T cells in vivo,"OT-1 CD8+ T cells; OVA or FT peptide immunization with TLR ligand versus peptide alone, splenocytes up to 14 days, early after T-cell activation",significantly reduced
same,4-1BB,[1],=
same,LAG3,[1],=/−
same,PD-1,[1],−
same,PD-1 expression on activated T cells,"[1]; in words, SIINFEKL plus TLR agonist versus antigen alone, up to 4 days",significantly reduced
